Data: paper PMC10313705, “Structure and transport mechanism of the human calcium pump SPCA1” (Cell Research, 2023)

Experiments:
hSPCA1 (hSPCA1a) [1] = molecular target: T1, hSPCA1 (hSPCA1a) (Homo sapiens, UniProt P98194); test: cryo-EM structure ([…] Å); assay type: binding; design: gene ATP2C1; full-length (Met1-Val919), C-terminal 2x Strep tag, expressed in HEK293F cells, purified in DDM/CHS then digitonin; residues 1-15 and 906-919 not modelled; settings: CaE1P-ADP state; 5 mM ADP, 5 mM NaF, 1 mM AlCl3; Ca2+, Mg2+, pH 8.0
T1 sequence (P98194 1-919): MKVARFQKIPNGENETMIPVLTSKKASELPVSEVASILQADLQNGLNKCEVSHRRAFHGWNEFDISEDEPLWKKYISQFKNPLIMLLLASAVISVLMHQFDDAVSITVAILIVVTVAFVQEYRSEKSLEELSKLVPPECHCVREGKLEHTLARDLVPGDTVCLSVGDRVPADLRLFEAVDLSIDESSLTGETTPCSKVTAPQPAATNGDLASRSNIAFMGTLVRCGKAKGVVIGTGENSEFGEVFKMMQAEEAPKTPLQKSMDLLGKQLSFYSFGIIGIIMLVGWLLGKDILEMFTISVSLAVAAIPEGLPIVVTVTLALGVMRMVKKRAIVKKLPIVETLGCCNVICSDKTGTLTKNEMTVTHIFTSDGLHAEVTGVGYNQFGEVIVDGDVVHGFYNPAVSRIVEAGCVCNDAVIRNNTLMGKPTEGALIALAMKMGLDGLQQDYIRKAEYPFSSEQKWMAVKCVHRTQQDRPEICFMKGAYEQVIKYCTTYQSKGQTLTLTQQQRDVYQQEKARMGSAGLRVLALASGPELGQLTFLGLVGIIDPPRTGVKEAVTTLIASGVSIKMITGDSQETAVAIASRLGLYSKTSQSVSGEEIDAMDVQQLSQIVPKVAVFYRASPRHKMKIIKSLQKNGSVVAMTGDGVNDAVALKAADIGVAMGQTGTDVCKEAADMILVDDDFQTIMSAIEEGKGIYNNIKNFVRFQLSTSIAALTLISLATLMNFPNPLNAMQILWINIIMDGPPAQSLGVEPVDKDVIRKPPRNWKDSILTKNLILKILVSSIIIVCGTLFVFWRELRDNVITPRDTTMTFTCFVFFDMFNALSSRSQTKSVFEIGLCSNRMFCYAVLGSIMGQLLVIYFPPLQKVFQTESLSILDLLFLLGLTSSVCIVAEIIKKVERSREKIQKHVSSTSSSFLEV

hSPCA1 (hSPCA1a) [2] = molecular target: T1, hSPCA1 (hSPCA1a); design: gene ATP2C1; settings: ATP hydrolysis by purified protein in digitonin
hSPCA1 (hSPCA1a) [3] = molecular target: T1, hSPCA1 (hSPCA1a); test: cryo-EM structure; assay type: binding; design: gene ATP2C1; full-length (Met1-Val919), C-terminal 2x Strep tag, expressed in HEK293F cells, purified in DDM/CHS then digitonin; residues 1-15 and 906-919 not modelled; settings: phosphate transition-state analogue at Asp350; E2~P state; 10 mM NaF, 2 mM AlCl3, Mg2+, no added Ca2+, pH 8.0
hSPCA1 (hSPCA1a) [4] = molecular target: T1, hSPCA1 (hSPCA1a); design: gene ATP2C1; settings: phosphate analogue at Asp350; 10 mM NaF, 2 mM BeSO4, 1 mM CaCl2, Mg2+, pH 8.0; CaE2P (8IWS) and early E2P (8IWT) states

Nc1ncnc2c1ncn2[C@@H]1O[C@H](COP(=O)(O)OP(=O)(O)O)[C@@H](O)[C@H]1O [ADP]
cryo-EM structure (3.71 Å) (hSPCA1 (hSPCA1a) [1]): the ADP molecule (dark gray) in the CaE1P-ADP state

Nc1ncnc2c1ncn2[C@@H]1O[C@H](COP(=O)(O)OP(=O)(O)OP(=O)(O)O)[C@@H](O)[C@H]1O [ATP]
ATPase assay, Pi release kit (absorbance at 636 nm) (hSPCA1 (hSPCA1a) [2]): an ATPase activity assay demonstrated that it has ATP hydrolysis activity

[F][Al-]([F])([F])[F] [AlF4^–]
cryo-EM structure (hSPCA1 (hSPCA1a) [3]): The EM densities derived from AlF4^– were clearly visible near Asp350

[F][Be-]([F])[F] [BeF3^–]
cryo-EM structures (3.42 Å CaE2P; 3.25 Å early E2P) (hSPCA1 (hSPCA1a) [4]): allowed us to trace the BeF3^– densities which were clearly visible near Asp350
